Test results reported in article PMC10280131 (RSC Advances, 2023).
Marks after values point to notes of the source that are not given here.

Legend:
[1] = target: Acetylcholinesterase (AChE) (Homo sapiens, UniProt P22303); assay: Acetylcholinesterase inhibition screening; format: biochemical
[2] = Antioxidant assay by DPPH scavenging
[3] = test system: brain tissue of AD-induced rats; assay: Brain oxidative stress markers; format: in vivo, rat
Wistar rats = assay: Acute toxicity, oral, rats
Bax gene = Bax gene expression in brain samples of AD induced rats; format: in vivo, rat; details: AD rats treated vs AD rats
Tau gene = Tau gene expression in brain samples of AD induced rats; format: in vivo, rat; details: AD rats treated vs AD rats
[4] = test system: liver, kidneys, heart, and brain; assay: Histopathological examination of chronic toxicity study; format: in vivo, mice; details: H&E
AD-induced rats = assay: T-maze test in AlCl3-induced AD rats; format: in vivo, rat; details: Treatment 4 weeks; for T-maze test, time taken to reach food: seconds, n = 10
Bcl-2 gene = Bcl-2 gene expression in brain samples of AD induced rats; format: in vivo, rat; details: AD rats treated vs AD rats
male Wistar rats = format: in vivo, rat
[5] = test system: Alzheimer's disease-induced rats; assay: Beam balance test in AlCl3-induced AD rats; format: in vivo, rat; details: Treatment 4 weeks
[6] = male rats, 10 mg per kg body weight
[7] = male rats, 10 mg per kg body weight, one month

Sequence of Acetylcholinesterase (AChE) (P22303 32-614, species assumed): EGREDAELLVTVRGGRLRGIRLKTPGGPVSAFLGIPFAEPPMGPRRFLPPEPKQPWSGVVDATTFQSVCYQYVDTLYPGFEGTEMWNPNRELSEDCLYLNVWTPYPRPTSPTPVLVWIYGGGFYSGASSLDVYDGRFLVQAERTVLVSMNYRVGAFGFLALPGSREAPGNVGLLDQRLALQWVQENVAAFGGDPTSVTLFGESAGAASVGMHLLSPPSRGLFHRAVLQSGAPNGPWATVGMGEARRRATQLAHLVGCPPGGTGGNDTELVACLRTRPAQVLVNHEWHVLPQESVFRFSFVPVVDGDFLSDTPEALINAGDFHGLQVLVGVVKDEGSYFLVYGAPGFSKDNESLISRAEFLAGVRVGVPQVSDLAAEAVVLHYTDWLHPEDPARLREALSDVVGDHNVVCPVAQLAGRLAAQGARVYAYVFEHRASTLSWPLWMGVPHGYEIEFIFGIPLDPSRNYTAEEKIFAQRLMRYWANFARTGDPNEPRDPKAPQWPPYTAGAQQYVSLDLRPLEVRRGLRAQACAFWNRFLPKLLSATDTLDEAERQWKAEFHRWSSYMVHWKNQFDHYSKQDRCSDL

## Cc1cc(=O)oc2cc(OCC(=O)NN=C3CCCc4ccccc43)ccc12 [Compound 4a, N′-(3,4-dihydronaphthalen-1(2H)-ylidene)-2-((4-methyl-2-oxo-2H-chromen-7-yl)oxy)acetohydrazide]
[1]
  IC50: 13.1 µM
[2]; Concentration (0.01 mg)
  Percent of antioxidant activity (DPPH scavenging): 31.8 ± 0.2%
[2]; Concentration (0.05 mg)
  Percent of antioxidant activity (DPPH scavenging): 40.9 ± 3.1%

## Cc1cc(=O)oc2cc(OCC(=O)NN=C3C(=O)Nc4ccccc43)ccc12 [Compound 4b, 2-((4-Methyl-2-oxo-2H-chromen-7-yl)oxy)-N′-(2-oxoindolin-3-ylidene) acetohydrazide]
[1]
  IC50: 20.9 µM
[2]; Concentration (0.01 mg)
  Percent of antioxidant activity (DPPH scavenging): 31.8 ± 1.2%
[2]; Concentration (0.05 mg)
  Percent of antioxidant activity (DPPH scavenging): 35.00 ± 1.00%

## Cc1cc(=O)oc2cc(OCC(=O)NN=C3CCc4ccccc43)ccc12 [Compound 4c, N′-(2,3-Dihydro-1H-inden-1-ylidene)-2-((4-methyl-2-oxo-2H-chromen-7-yl)oxy)acetohydrazide]
[3]; AD-induced rats
  GSH % improvement: 27.17%
  MDA % improvement: 90.64%
[3]; AD-induced rats, n = 8
  GSH: 21.66 ± 1.21 mg per g tissues
  MDA: 22.43 ± 1.66 mg per g tissues
[3]; vs AD group
  GSH % change to disease: 59.26%
  MDA % change to disease: 32.19%
Wistar rats; 50 mg per kg b.wt, rats
  Mortality: No mortality
Wistar rats; 100 mg per kg b.wt, post 24 h, one rat of 4
  Mortality: 25%
[1]
  IC50: 2.21 µM
Bax gene
  Expression of Bax gene: reduced expression
Tau gene
  Expression of Tau gene: reduced expression
[4]
  Heart and brain histopathology: no histopathological damage
  Kidney histopathology: no histopathological alterations
  Liver histopathology: slight Kupffer cell proliferation
AD-induced rats
  T-maze test, % improvement: 148.37%
  T-maze test, time taken to reach food: 28.20 ± 1.80 Sc
Bcl-2 gene
  Expression of Bcl-2 gene: improved expression
Male Wistar rats; 10 mg per kg b.wt orally, male Wistar rats, one month
  Signs of chronic toxicity: didn't see any indication of harmfulness
Male Wistar rats; 10 mg per kg b.wt, one month
  Change in blood profile levels vs control rats: insignificant changes
  Change in creatinine level vs untreated group: significant increase
  Change in hepatic enzyme levels (AST, ALT, and ALP) vs control group: insignificant difference
  Change in total urea level vs untreated group: insignificant change
Male Wistar rats; [6]
  ALP: 136.00 ± 9.00 ^a U/l
  ALT: 79.00 ± 4.40 ^a U/l
  AST: 32.00 ± 1.20 ^a U/l
  Creatinine: 2.80 ± 0.07 mg/dL
  Urea: 20.00 ± 1.57 mg/dL
Male Wistar rats; [7]
  Haematocrit: 45.00 ± 1.87 ^a %
  Hemoglobin (Hb): 14.58 ± 0.59 ^a g L^−1
  Lymphocyte: 7.62 ± 0.66 ^a 10^3 cm^−1
  MPV: 8.66 ± 0.19 ^a fL
  Mean corpuscular hemoglobin (MCH): 17.78 ± 0.88 ^a pg
  Mean corpuscular hemoglobin concentration (MCHC): 33.98 ± 0.25 ^a g dL^−1
  Mean corpuscular volume (MCV): 59.00 ± 0.03 ^a fL
  Monocyte: 1.93 ± 0.06 ^a 10^3 cm^−1
  Neutrophils: 2.39 ± 0.09 ^a 10^3 cm^−1
  Platelets: 465.00 ± 12.00 ^a 10^3 mm^−1
  RDW-CV: 15.80 ± 0.19 ^a %
  Red blood cells (RBCs): 8.00 ± 0.08 ^a million cells per mm
  White blood cells WBCs: 10.89 ± 1.90 ^a 10^3 cmm^−1
[5]
  Beam balance test time: 8.99 ± 1.00 Sc
  Beam balance test, % improvement: 60.00%
[2]; Concentration (0.01 mg)
  Percent of antioxidant activity (DPPH scavenging): 28.00 ± 0.4%
[2]; Concentration (0.05 mg)
  Percent of antioxidant activity (DPPH scavenging): 57.14 ± 2.77%

## Cc1cc(=O)oc2cc(OCC(=O)NN=Cc3ccc(C(=O)O)cc3)ccc12 [Compound 4d, 4-((2-(2-((4-Methyl-2-oxo-2H-chromen-7-yl)oxy)acetyl) hydrazineylidene)methyl) benzoic acid]
[1]
  IC50: 3.15 µM
[2]; Concentration (0.01 mg)
  Percent of antioxidant activity (DPPH scavenging): 4.5 ± 0.4%
[2]; Concentration (0.05 mg)
  Percent of antioxidant activity (DPPH scavenging): 10.3 ± 0.33%

## COc1cc2c(cc1OC)C(=O)C(CC1CCN(Cc3ccccc3)CC1)C2 (centres unmarked) [Donepezil, reference compound]
AD-induced rats
  T-maze test, % improvement: 181.70%
  T-maze test, time taken to reach food: 23.10 ± 1.70 Sc
[5]
  Beam balance test time: 9.80 ± 0.88 Sc
  Beam balance test, % improvement: 67.98%

## O=C1O[C@H]([C@@H](O)CO)C(O)=C1O [Vitamin C, ascorbic acid, reference compound]
[2]; Concentration (0.01 mg)
  Percent of antioxidant activity (DPPH scavenging): 80.00 ± 5.00%
[2]; Concentration (0.05 mg)
  Percent of antioxidant activity (DPPH scavenging): 89.00 ± 6.99%
